# Measured values reported in PubChem BioAssay (NCI).
#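 Five compound concentrations were applied to cells in 96-well plates for 48 hours; endpoints were derived by simple linear interpolation of the resulting dose-response curve. GI50: concentration for 50% inhibition of growth. TGI: total growth inhibition.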
# Key:
# Experiment in all cases: inhibition of tumour cell growth, NCI panel, 48 h
# 786-0 renal = system: 786-0 renal
# A498 renal = system: A498 renal
# A549 NSCLC = system: A549 NSCLC
# ACHN renal = system: ACHN renal
# BT-549 breast = system: BT-549 breast
# CAKI-1 renal = system: CAKI-1 renal
# CCRF-CEM leukemia = system: CCRF-CEM leukemia
# COLO 205 colon = system: COLO 205 colon
# DU-145 prostate = system: DU-145 prostate
# EKVX NSCLC = system: EKVX NSCLC
# HCC-2998 colon = system: HCC-2998 colon
# HCT-116 colon = system: HCT-116 colon
# HCT-15 colon = system: HCT-15 colon
# HL-60(TB) leukemia = system: HL-60(TB) leukemia
# HOP-62 NSCLC = system: HOP-62 NSCLC
# HOP-92 NSCLC = system: HOP-92 NSCLC
# HS 578T breast = system: HS 578T breast
# HT29 colon = system: HT29 colon
# IGROV1 ovarian = system: IGROV1 ovarian
# K-562 leukemia = system: K-562 leukemia
# KM12 colon = system: KM12 colon
# LOX IMVI melanoma = system: LOX IMVI melanoma
# M14 melanoma = system: M14 melanoma
# MALME-3M melanoma = system: MALME-3M melanoma
# MCF7 breast = system: MCF7 breast
# MDA-MB-231 breast = system: MDA-MB-231 breast
# MDA-MB-435 = system: MDA-MB-435
# MOLT-4 leukemia = system: MOLT-4 leukemia
# NCI-H226 lung = system: NCI-H226 lung
# NCI-H23 lung = system: NCI-H23 lung
# NCI-H460 lung = system: NCI-H460 lung
# NCI-H522 lung = system: NCI-H522 lung
# NCI/ADR-RES ovarian = system: NCI/ADR-RES ovarian
# OVCAR-3 ovarian = system: OVCAR-3 ovarian
# OVCAR-4 ovarian = system: OVCAR-4 ovarian
# OVCAR-5 ovarian = system: OVCAR-5 ovarian
# OVCAR-8 ovarian = system: OVCAR-8 ovarian
# PC-3 prostate = system: PC-3 prostate
# RPMI-8226 leukemia = system: RPMI-8226 leukemia
# RXF 393 renal = system: RXF 393 renal
# SF-268 CNS = system: SF-268 CNS
# SF-295 CNS = system: SF-295 CNS
# SF-539 CNS = system: SF-539 CNS
# SK-MEL-2 melanoma = system: SK-MEL-2 melanoma
# SK-MEL-28 melanoma = system: SK-MEL-28 melanoma
# SK-MEL-5 melanoma = system: SK-MEL-5 melanoma
# SK-OV-3 ovarian = system: SK-OV-3 ovarian
# SN12C renal = system: SN12C renal
# SNB-19 CNS = system: SNB-19 CNS
# SNB-75 CNS = system: SNB-75 CNS
# SW-620 colon = system: SW-620 colon
# T-47D breast = system: T-47D breast
# TK-10 renal = system: TK-10 renal
# U251 CNS = system: U251 CNS
# UACC-257 melanoma = system: UACC-257 melanoma
# UACC-62 melanoma = system: UACC-62 melanoma
# UO-31 renal = system: UO-31 renal
smiles,measurement,setting,value
CN1CCN(Cc2ccc(NC(=O)c3cncc(C#Cc4cnc(N)c5ncccc45)c3)cc2C(F)(F)F)CC1,GI50,786-0 renal,1.12 µM
same,TGI,786-0 renal,2.52 µM
same,GI50,A498 renal,0.141 µM
same,TGI,A498 renal,0.652 µM
same,GI50,A549 NSCLC,0.436 µM
same,TGI,A549 NSCLC,2.52 µM
same,GI50,ACHN renal,0.177 µM
same,TGI,ACHN renal,1.12 µM
same,GI50,BT-549 breast,5.1 µM
same,TGI,BT-549 breast,23.6 µM
same,GI50,CAKI-1 renal,0.231 µM
same,TGI,CAKI-1 renal,4.07 µM
same,GI50,CCRF-CEM leukemia,0.324 µM
same,GI50,COLO 205 colon,0.231 µM
same,TGI,COLO 205 colon,1.66 µM
same,GI50,DU-145 prostate,0.37 µM
same,TGI,DU-145 prostate,7.33 µM
same,GI50,EKVX NSCLC,0.589 µM
same,TGI,EKVX NSCLC,15.5 µM
same,GI50,HCC-2998 colon,0.539 µM
same,TGI,HCC-2998 colon,16.7 µM
same,GI50,HCT-116 colon,0.122 µM
same,TGI,HCT-116 colon,1.74 µM
same,GI50,HCT-15 colon,0.314 µM
same,TGI,HCT-15 colon,12.7 µM
same,GI50,HL-60(TB) leukemia,0.0768 µM
same,TGI,HL-60(TB) leukemia,0.602 µM
same,GI50,HOP-62 NSCLC,0.448 µM
same,TGI,HOP-62 NSCLC,5.78 µM
same,GI50,HOP-92 NSCLC,0.209 µM
same,TGI,HOP-92 NSCLC,1.24 µM
same,GI50,HS 578T breast,0.213 µM
same,TGI,HS 578T breast,1.68 µM
same,GI50,HT29 colon,0.157 µM
same,TGI,HT29 colon,1.48 µM
same,GI50,IGROV1 ovarian,0.175 µM
same,TGI,IGROV1 ovarian,2.58 µM
same,TGI,K-562 leukemia,1.92 µM
same,GI50,KM12 colon,< 0.0146 µM
same,TGI,KM12 colon,4.03 µM
same,GI50,LOX IMVI melanoma,0.216 µM
same,TGI,LOX IMVI melanoma,1.33 µM
same,GI50,M14 melanoma,0.0698 µM
same,TGI,M14 melanoma,1.14 µM
same,GI50,MALME-3M melanoma,0.131 µM
same,TGI,MALME-3M melanoma,0.607 µM
same,GI50,MCF7 breast,0.723 µM
same,TGI,MCF7 breast,2.92 µM
same,GI50,MDA-MB-231 breast,0.147 µM
same,TGI,MDA-MB-231 breast,0.71 µM
same,GI50,MDA-MB-435,0.247 µM
same,TGI,MDA-MB-435,1.44 µM
same,GI50,MOLT-4 leukemia,0.239 µM
same,TGI,MOLT-4 leukemia,5.16 µM
same,GI50,NCI-H226 lung,0.267 µM
same,TGI,NCI-H226 lung,12.5 µM
same,GI50,NCI-H23 lung,0.284 µM
same,TGI,NCI-H23 lung,6.26 µM
same,GI50,NCI-H460 lung,0.261 µM
same,TGI,NCI-H460 lung,1.59 µM
same,GI50,NCI-H522 lung,0.396 µM
same,TGI,NCI-H522 lung,8.49 µM
same,GI50,NCI/ADR-RES ovarian,0.685 µM
same,TGI,NCI/ADR-RES ovarian,3.13 µM
same,GI50,OVCAR-3 ovarian,0.781 µM
same,TGI,OVCAR-3 ovarian,4.88 µM
same,GI50,OVCAR-4 ovarian,0.1 µM
same,TGI,OVCAR-4 ovarian,1.29 µM
same,GI50,OVCAR-5 ovarian,0.372 µM
same,TGI,OVCAR-5 ovarian,1.78 µM
same,GI50,OVCAR-8 ovarian,0.58 µM
same,TGI,OVCAR-8 ovarian,3.51 µM
same,GI50,PC-3 prostate,0.584 µM
same,TGI,PC-3 prostate,16.9 µM
same,GI50,RPMI-8226 leukemia,0.401 µM
same,TGI,RPMI-8226 leukemia,8.2 µM
same,GI50,RXF 393 renal,0.26 µM
same,TGI,RXF 393 renal,1.09 µM
same,GI50,SF-268 CNS,0.511 µM
same,TGI,SF-268 CNS,2.95 µM
same,GI50,SF-295 CNS,0.55 µM
same,TGI,SF-295 CNS,15.5 µM
same,GI50,SF-539 CNS,0.306 µM
same,TGI,SF-539 CNS,1.47 µM
same,GI50,SK-MEL-2 melanoma,0.142 µM
same,TGI,SK-MEL-2 melanoma,0.468 µM
same,GI50,SK-MEL-28 melanoma,0.389 µM
same,TGI,SK-MEL-28 melanoma,1.59 µM
same,GI50,SK-MEL-5 melanoma,0.432 µM
same,TGI,SK-MEL-5 melanoma,1.59 µM
same,GI50,SK-OV-3 ovarian,0.391 µM
same,TGI,SK-OV-3 ovarian,9.07 µM
same,GI50,SN12C renal,0.307 µM
same,TGI,SN12C renal,1.5 µM
same,GI50,SNB-19 CNS,2.11 µM
same,TGI,SNB-19 CNS,11.8 µM
same,GI50,SNB-75 CNS,0.391 µM
same,TGI,SNB-75 CNS,1.48 µM
same,GI50,SW-620 colon,0.247 µM
same,TGI,SW-620 colon,1.36 µM
same,GI50,T-47D breast,2.52 µM
same,TGI,T-47D breast,39.1 µM
same,GI50,TK-10 renal,0.686 µM
same,TGI,TK-10 renal,3.68 µM
same,GI50,U251 CNS,0.509 µM
same,TGI,U251 CNS,2.18 µM
same,GI50,UACC-257 melanoma,0.639 µM
same,TGI,UACC-257 melanoma,5.6 µM
same,GI50,UACC-62 melanoma,0.341 µM
same,TGI,UACC-62 melanoma,1.93 µM
same,GI50,UO-31 renal,0.242 µM
same,TGI,UO-31 renal,1.21 µM
NC(N)=N/N=C\c1c(-c2cccc([N+](=O)[O-])c2)nc2sccn12,TGI,786-0 renal,> 100 µM
same,TGI,A498 renal,64.1 µM
same,TGI,A549 NSCLC,51.6 µM
same,TGI,ACHN renal,5.68 µM
same,TGI,BT-549 breast,4.06 µM
same,TGI,CAKI-1 renal,45.3 µM
same,TGI,CCRF-CEM leukemia,> 100 µM
same,TGI,COLO 205 colon,14.5 µM
same,TGI,DU-145 prostate,20.8 µM
same,TGI,EKVX NSCLC,56.2 µM
same,TGI,HCC-2998 colon,5.38 µM
same,TGI,HCT-116 colon,> 100 µM
same,TGI,HCT-15 colon,> 100 µM
same,TGI,HL-60(TB) leukemia,> 100 µM
same,TGI,HOP-62 NSCLC,> 100 µM
same,TGI,HOP-92 NSCLC,27.6 µM
same,TGI,HS 578T breast,38.1 µM
same,TGI,HT29 colon,4.23 µM
same,TGI,IGROV1 ovarian,33.6 µM
same,TGI,K-562 leukemia,> 100 µM
same,TGI,KM12 colon,3.66 µM
same,TGI,M14 melanoma,5.93 µM
same,TGI,MALME-3M melanoma,51.4 µM
same,TGI,MDA-MB-231 breast,5.01 µM
same,TGI,MDA-MB-435,5.16 µM
same,TGI,MOLT-4 leukemia,5 µM
same,TGI,NCI-H23 lung,32.1 µM
same,TGI,NCI-H460 lung,78.7 µM
same,TGI,NCI-H522 lung,14.2 µM
same,TGI,NCI/ADR-RES ovarian,> 100 µM
same,TGI,OVCAR-3 ovarian,6.29 µM
same,TGI,OVCAR-4 ovarian,3.78 µM
same,TGI,OVCAR-5 ovarian,> 100 µM
same,TGI,PC-3 prostate,29 µM
same,TGI,RPMI-8226 leukemia,> 100 µM
same,TGI,RXF 393 renal,5.8 µM
same,TGI,SF-295 CNS,5.86 µM
same,TGI,SF-539 CNS,54.9 µM
same,TGI,SK-MEL-2 melanoma,6.49 µM
same,TGI,SK-MEL-28 melanoma,4.37 µM
same,TGI,SK-MEL-5 melanoma,36.1 µM
same,TGI,SN12C renal,4.89 µM
same,TGI,SW-620 colon,5.43 µM
same,TGI,T-47D breast,4.18 µM
same,TGI,TK-10 renal,4.53 µM
same,TGI,UACC-257 melanoma,48.8 µM
same,TGI,UACC-62 melanoma,79 µM
same,TGI,UO-31 renal,37.7 µM
COc1cc([C@@H]2c3cc4c(cc3[C@H](OC3OC5COC(c6ccco6)OC5C(O)C3O)C3COC(=O)[C@@H]32)OCO4)cc(OC)c1OC (some centres undefined),TGI,786-0 renal,> 34.5 µM
same,TGI,A549 NSCLC,> 100 µM
same,TGI,ACHN renal,> 59.3 µM
same,TGI,BT-549 breast,85.7 µM
same,TGI,CAKI-1 renal,> 69.9 µM
same,TGI,COLO 205 colon,> 31.3 µM
same,TGI,DU-145 prostate,> 100 µM
same,TGI,HCC-2998 colon,> 100 µM
same,TGI,HCT-116 colon,> 100 µM
same,TGI,HCT-15 colon,> 100 µM
same,TGI,HL-60(TB) leukemia,> 100 µM
same,TGI,HOP-62 NSCLC,> 100 µM
same,TGI,HOP-92 NSCLC,> 100 µM
same,TGI,HS 578T breast,> 100 µM
same,TGI,HT29 colon,> 100 µM
same,TGI,IGROV1 ovarian,> 52.7 µM
same,TGI,KM12 colon,> 100 µM
same,TGI,LOX IMVI melanoma,> 100 µM
same,TGI,M14 melanoma,> 100 µM
same,TGI,MALME-3M melanoma,> 100 µM
same,TGI,MCF7 breast,> 53.6 µM
same,TGI,MDA-MB-231 breast,> 100 µM
same,TGI,MDA-MB-435,> 100 µM
same,TGI,NCI-H226 lung,> 100 µM
same,TGI,NCI-H23 lung,> 79.4 µM
same,TGI,NCI-H522 lung,> 57.3 µM
same,TGI,NCI/ADR-RES ovarian,> 80.1 µM
same,TGI,OVCAR-3 ovarian,> 24.6 µM
same,TGI,OVCAR-4 ovarian,> 100 µM
same,TGI,OVCAR-5 ovarian,> 100 µM
same,TGI,OVCAR-8 ovarian,> 100 µM
same,TGI,PC-3 prostate,> 35.9 µM
same,TGI,RPMI-8226 leukemia,> 100 µM
same,TGI,RXF 393 renal,> 100 µM
same,TGI,SF-268 CNS,> 100 µM
same,TGI,SF-295 CNS,> 100 µM
same,TGI,SF-539 CNS,> 100 µM
same,TGI,SK-MEL-2 melanoma,> 69.8 µM
same,TGI,SK-MEL-5 melanoma,> 72.4 µM
same,TGI,SK-OV-3 ovarian,> 100 µM
same,TGI,SNB-19 CNS,> 100 µM
same,TGI,SNB-75 CNS,> 100 µM
same,TGI,SW-620 colon,> 100 µM
same,TGI,T-47D breast,> 100 µM
same,TGI,TK-10 renal,> 100 µM
same,TGI,U251 CNS,> 100 µM
same,TGI,UACC-257 melanoma,> 100 µM
same,TGI,UACC-62 melanoma,> 100 µM
same,TGI,UO-31 renal,> 100 µM
